One assay deals with human cyclin D1-CDK4 (Homo sapiens, UniProt P11802). Put plainly: FlashPlate kinase assay, cyclin D1-CDK4, Rb substrate. Type of assay: biochemical. As to conditions: recombinant cyclin D1-CDK4, Rb phosphorylation, 1 μM ATP. How it is done:
(§1) To determine inhibition of Cdk4, Cdk2 and Cdk1 activity, kinase assays were conducted using FlashPlate™ assays (NEN™-Life Science Products). FlashPlate assays were performed using recombinant human cyclin B-CDK1, human cyclin E-CDK2 or human cyclin D1-CDK4 complexes. GST-cyclinE (GST-cycE), CDK2, GST-cyclinB (GST-cycB), CDK1, GST-CDK4 and cyclin D1 (cycD1) cDNA clones in baculovirus vectors were provided by Dr. W. Harper at the Baylor College of Medicine, Houston, Tex. Proteins were co-expressed in High Five™ insect cells and the complex was purified on glutathione Sepharose resin (Pharmacia, Piscataway, N.J.) as previously described (Harper, J. W. et al. Cell 1993, 75, 805-816). A 6×-Histidine tagged truncated form of retinoblastoma (Rb) protein (amino acid 386-928) was used as the substrate for the cycD1-CDK4, cycB-CDK1 and the cycE-CDK2 assays (the expression plasmid was provided by Dr. Veronica Sullivan, Department of Molecular Virology, Roche Research Centre, Welwyn Garden City, United Kingdom). The Rb protein is a natural substrate for phosphorylation by CDK4, CDK2 and CDK1 (see Herwig and Strauss Eur. J. Biochem. Vol. 246 (1997) pp. 581-601 and the references cited therein).
(§2) The expression of the 62 Kd protein was under the control of an IPTG inducible promoter in an M15 E. coli strain. Cells were lysed by sonication and purification was carried out by binding lysates at pH 8.0 to a Ni-chelated agarose column pretreated with 1 mM imidazole. The resin was then washed several times with incrementally decreasing pH buffers to pH 6.0, and eluted with 500 mM imidazole. Eluted protein was dialysed against 20 mM HEPES pH 7.5, 30% glycerol, 200 mM NaCl, and 1 mM DTT. Purified Rb fusion protein stocks were quantitated for protein concentration, aliquoted, and stored at −70° C.
(§3) For all three kinase assays reported herein, 96-well FlashPlates were coated with Rb protein at 10 μg/ml, using 100 μl per well. Plates were incubated at 4° C. overnight or at room temperature for 3 hours on a shaker. To control for nonspecific phosphorylation, one row of wells was coated with 100 μl/well coating buffer (20 mM HEPES, 0.2 M NaCl). Plates were then washed twice with wash buffer (0.01% Tween 20 in phosphate-buffered saline). Compounds to be tested (“test compounds”) were added to the wells at 5×final concentration. Reactions were initiated by immediate addition of 40 μl reaction mix (25 mM HEPES, 20 mM MgCl2, 0.002% Tween 20, 2 mM DTT, 1 μM ATP, 4 nM ^33P-ATP) and a sufficient amount of enzyme to give counts that were at least 10-fold above background. Plates were incubated at room temperature on a shaker for 30 minutes. Plates were washed four times with the wash buffer, sealed, and counted on the TopCount scintillation counter (Packard Instrument Co., Downers Grove, Ill.]. The percent inhibition of Rb phosphorylation, which is a measure of the inhibition of CDK activity, was determined according to the following formula: [formula]
(§4) where “test compound” refers to the average counts per minute of the test duplicates, “nonspecific” refers to the average counts per minute when no CyclinD/Cdk4, etc., was added, and “total” refers to the average counts per minute when no compound was added. The IC50 value is the concentration of test compound that reduces by 50% the protein-kinase induced incorporation of the radiolabel under the test conditions described.

Assay [1] concerns HCT116, a colorectal carcinoma cell line. Briefly: Tetrazolium dye proliferation assay (MTT assay). It counts as cell-based. As to conditions: inhibition of cell proliferation. As for the experimental part: Proliferation was evaluated by the tetrazolium dye assay according to the procedure of Denizot and Lang (Denizot, F. and Lang, R. J Immunol Methods 1986, 89, 271-277). The cell line used was HCT116, a colorectal carcinoma cell line obtained from the American Type Cell Culture Collection (ATCC; Rockville, Md.). The cells were grown in McCoy's 5A medium supplemented with 10% FCS and L-glutamine.
Cells were plated at the appropriate seeding density to give logarithmic growth over the course of the assay in a 96-well tissue culture plate. Plates were incubated overnight at 37° C. in a humidified incubator with 5% CO2. The next day, test compounds were serially diluted to four times the final concentration in the appropriate medium containing 1.2% DMSO. One-fourth final volume of each dilution was added in duplicate to the plates containing cells. The same volume of 1.2% DMSO in medium was added to a row of “control wells” such that the final concentration of DMSO in each well was 0.3%. Wells to which no cells were added served as the “blank.” Wells to which no inhibitor was added served as “no inhibitor control.” The plates were) returned to the incubator, and at set time points (determined by their growth curves) plates were analyzed as described below.
3-(4,5-dimethylthiazole-2-yl)-2,5-diphenyl-2H-tetrazolium bromide (thiazolyl blue; MTT; Sigma) was added to each well to yield a final concentration of 1 mg/ml. Plates were returned to the incubator for 2.5-3 hours at 37° C. The MTT-containing medium was removed and the resulting formazan metabolite was solubilized in 100% ethanol with shaking for 15 minutes at room temperature. Absorbance readings were taken in a microtiter plate reader (Dynatech and Molecular Devices plate readers were used interchangeably) at a wavelength of 570 nm with a 650 nm reference. Percent inhibition (% INH) is calculated by subtracting the absorbance of the blank well from all wells, then subtracting the ratio of the average absorbance of each test duplicate (SAVE) by the average of the controls (CAVE) from 1.00. The final number is then multiplied by 100 (% INH=(1.00−SAVE/CAVE)×100). The concentration at which 50% inhibition of cell proliferation is obtained (the IC50) is determined from the linear regression of a plot of the logarithm of the concentration versus percent inhibition.
(Tetrazolium assays rely on reduction of a dye to a coloured formazan, in cell work by metabolically active cells.)

The next assay deals with human cyclin B-CDK1 (Homo sapiens, UniProt P06493). Put plainly: FlashPlate kinase assay, cyclin B-CDK1, Rb substrate. Conditions: recombinant cyclin B-CDK1, Rb phosphorylation, 1 μM ATP. Type of assay: biochemical. As for the experimental part:
as §1, §2, §3, §4

The target of the next assay is human cyclin E-CDK2 (Homo sapiens, UniProt P24941). Briefly: FlashPlate kinase assay, cyclin E-CDK2, Rb substrate. Type of assay: biochemical. Conditions: recombinant cyclin E-CDK2, Rb phosphorylation, 1 μM ATP. As for the experimental part:
as §1, §2, §3, §4

Setting [2] is: Homo sapiens, HCT-116, HCT116 cells.

pIC50: −log10 of the molar value.

Sequence of human cyclin D1-CDK4 (P11802 whole entry): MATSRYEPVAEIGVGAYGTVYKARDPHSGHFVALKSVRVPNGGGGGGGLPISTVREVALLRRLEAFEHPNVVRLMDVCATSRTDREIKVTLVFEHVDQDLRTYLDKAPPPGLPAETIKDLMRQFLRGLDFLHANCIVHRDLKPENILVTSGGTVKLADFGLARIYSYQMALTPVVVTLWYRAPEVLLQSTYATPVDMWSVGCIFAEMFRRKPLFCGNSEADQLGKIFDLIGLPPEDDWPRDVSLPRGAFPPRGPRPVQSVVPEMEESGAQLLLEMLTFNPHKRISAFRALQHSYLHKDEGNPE
Sequence of human cyclin D1-CDK4 (P24385 whole entry partner): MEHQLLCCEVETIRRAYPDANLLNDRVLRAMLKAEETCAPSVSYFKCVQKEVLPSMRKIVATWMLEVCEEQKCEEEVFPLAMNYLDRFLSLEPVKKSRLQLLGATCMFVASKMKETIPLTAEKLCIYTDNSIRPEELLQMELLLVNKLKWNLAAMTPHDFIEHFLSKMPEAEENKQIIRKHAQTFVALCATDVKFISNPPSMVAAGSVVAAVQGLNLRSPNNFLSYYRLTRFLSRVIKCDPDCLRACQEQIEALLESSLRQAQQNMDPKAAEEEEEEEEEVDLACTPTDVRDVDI
Sequence of human cyclin B-CDK1 (P06493 whole entry): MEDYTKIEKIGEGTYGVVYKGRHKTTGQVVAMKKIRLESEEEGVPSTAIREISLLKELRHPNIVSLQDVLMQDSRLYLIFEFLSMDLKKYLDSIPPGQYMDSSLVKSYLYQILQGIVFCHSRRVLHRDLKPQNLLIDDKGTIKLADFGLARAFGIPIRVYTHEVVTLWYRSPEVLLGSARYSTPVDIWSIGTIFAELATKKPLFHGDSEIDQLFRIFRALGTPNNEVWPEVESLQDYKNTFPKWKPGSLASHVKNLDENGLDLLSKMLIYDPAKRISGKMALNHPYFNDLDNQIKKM
Sequence of human cyclin B-CDK1 (P14635 whole entry partner): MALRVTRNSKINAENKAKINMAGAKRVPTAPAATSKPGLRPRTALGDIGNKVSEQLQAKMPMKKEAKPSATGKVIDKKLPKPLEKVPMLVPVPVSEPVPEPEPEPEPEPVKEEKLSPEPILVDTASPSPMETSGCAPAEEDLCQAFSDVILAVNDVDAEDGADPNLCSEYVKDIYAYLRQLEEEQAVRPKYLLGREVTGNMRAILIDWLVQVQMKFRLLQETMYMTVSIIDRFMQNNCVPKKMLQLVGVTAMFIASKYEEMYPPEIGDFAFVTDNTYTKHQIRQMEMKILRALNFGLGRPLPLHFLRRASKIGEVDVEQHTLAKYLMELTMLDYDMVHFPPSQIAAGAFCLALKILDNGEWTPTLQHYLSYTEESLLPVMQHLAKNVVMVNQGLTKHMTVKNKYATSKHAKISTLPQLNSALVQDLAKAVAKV

By pIC50 is commonly meant the negative decadic logarithm of the IC50, by convention in mol/L. As for `Nc1nc(Nc2ccc(OCCN3CCCC3)cc2)sc1C(=O)c1cccc(F)c1` [Example 36, [4-Amino-2-[4-(2-pyrrolidin-1-yl-ethoxy)-phenylamino]-thiazol-5-yl]-(3-fluoro-phenyl)-methanone], the pIC50 on human cyclin D1-CDK4 is 7.57; in assay [1] (HCT116 cells), 6.32; on human cyclin B-CDK1 it was 6.47; on human cyclin E-CDK2 it was 6.10.
For `CN(C)CCOc1ccc(Nc2nc(N)c(C(=O)c3cccc(F)c3)s2)cc1` [Example 37, [4-Amino-2-[4-(2-dimethylamino-ethoxy)-phenylamino]-thiazol-5-yl]-(3-fluoro-phenyl)-methanone], the pIC50 on human cyclin D1-CDK4 was 7.49; in assay [1] (setting [2]), 6.28; on human cyclin B-CDK1, 6.90; on human cyclin E-CDK2 it was 6.05.
The corresponding values for `CC(COc1ccc(Nc2nc(N)c(C(=O)c3cccc(F)c3)s2)cc1)N(C)C` (stereo not drawn) [Example 38, [4-Amino-2-[4-(2-dimethylamino-propoxy)-phenylamino]-thiazol-5-yl]-(3-fluoro-phenyl)-methanone] are 7.01, 6.36, 6.24 and 5.86.
`C[C@H](COc1ccc(Nc2nc(N)c(C(=O)c3cccc(F)c3)s2)cc1)N(C)C` [Example 40, (R)-[4-Amino-2-[4-(2-dimethylamino-propoxy)-phenylamino]-thiazol-5-yl]-(3-fluoro-phenyl)-methanone]: the pIC50 on human cyclin D1-CDK4 was 7.06; in assay [1] (setting [2]), 6.46; at human cyclin B-CDK1 it was 6.24; at human cyclin E-CDK2, 6.00.
The corresponding values for `C[C@H](COc1ccc(Nc2nc(N)c(C(=O)c3cccc(F)c3)s2)cc1)N1CCCC1` [Example 41, (R)-[4-Amino-2-[4-(2-pyrrolidin-1-yl-propoxy)-phenylamino]-thiazol-5-yl]-(3-fluoro-phenyl)-methanone] are 7.20, 6.17, 6.36 and 5.98.
`CCN1CCC(Oc2ccc(Nc3nc(N)c(C(=O)c4cccc(F)c4)s3)cc2)C1` (stereo not drawn) [Example 42, [4-Amino-2-[4-(1-ethyl-pyrrolidin-3-yloxy)-phenylamino]-thiazol-5-yl]-(3-fluoro-phenyl)-methanone]: the pIC50 at human cyclin D1-CDK4 is 7.24; in assay [1] (setting [2]), 6.07; at human cyclin B-CDK1, 6.53; at human cyclin E-CDK2, 6.30.
The corresponding values for `CCN1CCCC(Oc2ccc(Nc3nc(N)c(C(=O)c4cccc(F)c4)s3)cc2)C1` (stereo not drawn) [Example 43, [4-Amino-2-[4-(1-ethyl-piperidin-3-yloxy)-phenylamino]-thiazol-5-yl]-(3-fluoro-phenyl)-methanone] are 7.23, 6.12, 6.15 and 5.94.
In the case of `CN1CCC[C@H]1COc1ccc(Nc2nc(N)c(C(=O)c3cccc(F)c3)s2)cc1` [Example 44, (S)-[4-Amino-2-[4-(1-methyl-pyrrolidin-2-ylmethoxy)-phenylamino]-thiazol-5-yl]-(3-fluoro-phenyl)-methanone], the pIC50 at human cyclin D1-CDK4 was 7.19; in assay [1] (setting [2]), 6.41; at human cyclin B-CDK1, 6.23; on human cyclin E-CDK2, 5.90.
The corresponding values for `Nc1nc(Nc2ccc(OC3CCNC3)cc2)sc1C(=O)c1cccc(F)c1` (stereo not drawn) [Example 45, [4-Amino-2-[4-(pyrrolidin-3-yloxy)-phenylamino]-thiazol-5-yl]-(3-fluoro-phenyl)-methanone] are 7.41, 5.91, 6.80 and 6.23.
`Cc1cccc(C(=O)c2sc(Nc3ccc(OCCN(C)C)cc3)nc2N)c1` [Example 50, [4-Amino-2-[4-(2-dimethylamino-ethoxy)-phenylamino]-thiazol-5-yl]-m-tolyl-methanone]: the pIC50 at human cyclin D1-CDK4 is 7.22; in assay [1] (setting [2]), 5.98; at human cyclin B-CDK1, 5.77; on human cyclin E-CDK2, 5.47.
The corresponding values for `Cc1cccc(C(=O)c2sc(Nc3ccc(OCCN4CCCC4)cc3)nc2N)c1` [Example 51, [4-Amino-2-[4-(2-pyrrolidin-1-yl-ethoxy)-phenylamino]-thiazol-5-yl]-m-tolyl-methanone] are 7.28, 6.21, 5.97 and 5.53.
Consider `CCc1cccc(C(=O)c2sc(Nc3ccc(OCCN(C)C)cc3)nc2N)c1` [Example 52, [4-Amino-2-[4-(2-dimethylamino-ethoxy)-phenylamino]-thiazol-5-yl]-(3-ethyl-phenyl)-methanone], for which the pIC50 is 7.57 at human cyclin D1-CDK4, 6.28 in assay [1] (setting [2]), 5.49 at human cyclin B-CDK1 and 5.92 at human cyclin E-CDK2.
The corresponding values for `CCc1cccc(C(=O)c2sc(Nc3ccc(OCCN4CCCC4)cc3)nc2N)c1` [Example 53, [4-Amino-2-[4-(2-pyrrolidin-1-yl-ethoxy)-phenylamino]-thiazol-5-yl]-(3-ethyl-phenyl)-methanone] are 7.66, 6.40, 5.52 and 6.03.
The corresponding values for `CN(C)CCOc1ccc(Nc2nc(N)c(C(=O)c3cccc([N+](=O)[O-])c3)s2)cc1` [Example 54, [4-Amino-2-[4-(2-dimethylamino-ethoxy)-phenylamino]-thiazol-5-yl]-(3-nitro-phenyl)-methanone] are 7.44, 5.79, 6.42 and 5.91.
On to `Nc1nc(Nc2ccc(OCCN3CCCC3)cc2)sc1C(=O)c1ccc2c(c1)OCO2` [Example 57, [4-Amino-2-[4-(2-pyrrolidin-1-yl-ethoxy)-phenylamino]-thiazol-5-yl]-benzo[1,3]dioxol-5-yl-methanone], for which the pIC50 at human cyclin D1-CDK4 was 7.18; in assay [1] (setting [2]), 5.53; on human cyclin B-CDK1, 6.42; on human cyclin E-CDK2 it was 5.31.

Values taken from patent publication US6818663B2, “Diaminothiazoles” (Hoffmann-La Roches, priority 2002, dated 2004).
